Laboratory results from article PMC11927960, “Multiparameter ranking of carbazoles for anti-trypanosome lead discovery” (Frontiers in drug discovery, 2024).
≈ marks a conversion by molar mass, not a printed value. Like-named read-outs stand apart in the source and are kept apart here.

How the values were obtained:
[1] = Brain accumulation (brain to plasma concentration ratio); details: Swiss Webster, mouse
Protocol: The plasma concentration and tissue distribution of drugs were determined by Absorption Systems. […] Blood and brain samples were obtained at 1, 2, 4, and 6 h post-dosing, and plasma and brain concentrations of the drug were determined using LC-MS/MS. Stock standards for calibration were prepared in a matrix comprising equal volumes of water and mouse blood containing K2-EDTA as an anticoagulant. Working solutions were prepared in 50:50 acetonitrile–water and added to the matrix to final concentrations of 1,000, 500, 100, 50.0, 10.0, 5.00, 1.00, and 0.500 ng/mL for all compounds. Pharmacokinetic parameters were determined using Phoenix WinNonlin (v8.0) software with sparse sampling. Maximum plasma concentration (Cmax) and the time to reach maximum plasma concentration (tmax) were determined from the four data points. The area under the time concentration curve (AUClast) was calculated using the linear trapezoidal rule with calculation to a 6-h data point. Plasma half-life (t1/2) was calculated from 0.693/slope of the terminal elimination phase. Samples below the limit of detection (0.500 ng/mL) were treated as 0. […]
or CBL0187, respectively. Blood and brain samples were obtained at 1, 2, 4, and 6 h post-dosing, and plasma and brain concentrations of the carbazoles were determined using LC-MS/MS. (A) Brain tissue concentrations of curaxins at different time points (B) Ratios of […]
male and female Swiss-wester mice. […]

T. brucei Lister427 = assay: Delayed trypanocidal assay (6 h exposure, wash-off); type: cell-based, Trypanosoma brucei; details: starting cell density 1 × 10^5/mL instead of 5 × 10^5/mL
[2] = system: Trypanosoma brucei Lister427; assay: Recovery of trypanosome proliferation after 6-h exposure to Cmax or AUC0–6h amounts in 50% serum; type: cell-based; details: for Trypanocidal or cytostatic outcome: 6-h treatment with Cmax equivalents
Protocol: Recovery of trypanosome proliferation after a 6-h exposure to curaxins
The in vivo plasma exposure of trypanosomes to drug is expressed as area under the curve (AUC) in pharmacokinetic analysis. Theoretically, the same drug exposures in vitro and in vivo will be achieved within 6 h if the in vitro compound concentration × 6 h value was equal to in vivo AUC0–6h. […] AUC0–6h unbound is equal to the AUC0–6h × fraction of drug unbound to plasma (PFU) (Table 4).
Trypanosomes (1 × 10^5/mL) were treated with a concentration equivalent of the AUC0–6h unbound (Table 4) of each compound. After 6 h, cells were washed and resuspended (1 × 10^5 cells/mL) in drug-free medium. […] Proliferation recovery time was recorded post drug wash-off as described above.

[3] = Thermodynamic aqueous solubility (pH 7.4); type: physicochemical; details: aqueous buffer, thermodynamic from solid, phosphate buffer pH 7.4, 25 °C, 20–24 h
Protocol: Thermodynamic aqueous solubility (pH 7.4).
Various amounts of compounds in powdered form were added to phosphate buffer (0.1 M, pH 7.4). Suspensions were kept on a shaker at 25 °C for 20–24 h. After centrifugation, compounds in the supernatant were quantified using LC-MS/MS.

T. brucei AnTat1.1 = assay: Treatment of chronic HAT in a mouse model of disease; type: in vivo, Trypanosoma brucei in Swiss-Webster mice; details: for Mean parasitemia on day 7 post-infection: CBL0174 60 mg/kg, CBL0187 50 mg/kg orally from day 3, vehicle 1.64 × 10^7; for Outcome in chronic HAT mouse model: oral, CBL0137 40 mg/kg days 2-5, 8-11, 14, 15, CBL0174 60 mg/kg and CBL0187 50 mg/kg days 3-9
Protocol: Mice were each infected intraperitoneally with Trypanosoma brucei AnTat1.1 (10^4). […] (B) CBL0174 and CBL0187: Groups V, B, and D were given vehicle, CBL0174 (60 mg/kg) and CBL0187 (50 mg/kg), respectively, from day 3 through 9. Different shapes represent individual mice, and horizontal lines in each group denote mean parasitemia determined with a hemocytometer. UND = undetectable; DPI = days post-infection.
Treatment of chronic HAT in a mouse model of disease
Drug efficacy studies in a mouse model of HAT were conducted following recommendations in the “Guide for the Care and Use of Laboratory Animals” of the National Institutes of Health. The protocol was approved by the Institutional Animal Care and Use Committee (IACUC) at the University of Georgia. After the study, the mice were euthanized by CO2 asphyxiation followed by incision to form a bilateral pneumothorax, as approved by the American Veterinary Association.
Female Swiss-Webster mice (20–25 g; 8–10 weeks old) were acclimatized for 1 week before the commencement of the study. […] Parasites in blood collected from a tail venipuncture and diluted 8-fold in RBC lysis buffer (Qiagen) were monitored with a hemocytometer (Neubauer Bright-line). During the study, mice with parasitemia above 10^8 trypanosomes/mL were euthanized for humane reasons. Mice without parasitemia for 90 days were considered cured.

[4] = Caco-2 bidirectional permeability assay; type: in vitro ADME; details: human
Protocol: Caco-2 bidirectional permeability assay.
Caco-2 bidirectional permeability assay was performed at Absorption Systems (Exton, Pennsylvania). Briefly, monolayers of Caco-2 cells (clone C2BBe1) were grown to confluence on collagen-coated, microporous membranes in 12-well plates. Permeability assay buffer (Hanks’ balanced salt solution containing 10 mM HEPES and 15 mM glucose, pH 7.4) in the receiver chamber contained 1% bovine serum albumin. Compounds dissolved in assay buffer (5 μM) were added either on the apical (A) or the basolateral side (B) and incubated at 37 °C with 5% CO2 in a humidified incubator. Samples were collected from donor and receiver chambers at 120 min. Each determination was performed in duplicate. The flux of lucifer yellow dye was measured post-experimentally for each monolayer to ensure that no monolayers were damaged during the flux period with compounds. Drug amounts were determined by LC-MS/MS. Apparent permeability (Papp) and percent recovery were determined as per [Hubatsch et al. (2007)]. The efflux ratio was calculated as Papp (B-to-A)/Papp (A-to-B).

[5] = 6-h treatment with Cmax amount (CBL0137 1.85, CBL0174 1.04, CBL0187 0.72 μM), 50% serum, NR = no recovery 84 h after wash-off
[6] = Caco-2, pH 7.4, Caco-2, direction A-to-B
[7] = Caco-2, pH 7.4, Caco-2, direction B-to-A

Structure (SMILES) | Kp ([1]; brain, oral) | Kp ([1]; in vivo, po) | DTC25 T. brucei Lister427 (value in parenthesis) (T. brucei Lister427) [nM] | DTC50 T. brucei Lister427 (value in parenthesis) (T. brucei Lister427) [nM] | DTC90 T. brucei Lister427 (value in parenthesis) (T. brucei Lister427) [nM] | Latency of proliferation [2] [h] | Latency of proliferation [2, 5] [h] | Trypanocidal or cytostatic outcome ([2]; 50% serum) | solubility [3] [µM] | Mean parasitemia on day 7 post-infection (T. brucei AnTat1.1) | Outcome in chronic HAT mouse model (T. brucei AnTat1.1) | Papp at 120 min, 5 μM [4, 6] [×10⁻⁶ cm/s] | recovery at 120 min, 5 μM [4, 6] [%] | Papp at 120 min, 5 μM [4, 7] [×10⁻⁶ cm/s] | recovery at 120 min, 5 μM [4, 7] [%] | Time to resumption of proliferation (before subtracting 18 h of control) ([2]; 6-h treatment with Cmax equivalent, 50% serum) [h]
CC(=O)c1cc2c3cc(C(C)=O)c(O)cc3n(CCCN(C)C)c2cc1O [CBL0174, 1-[6-acetyl-9-[3-(dimethylamino)propyl]-2,7-dihydroxy-carbazol-3-yl]ethanone] | 26.9 | 27.9 | 60 | 122 | 513 | 66 | 66 | cytostatic | 773 (≈ 285 µg/mL) | 8.22 × 10^7 ± 6.64 × 10^6 trypanosomes/mL | failed to control parasitemia | 17.8 ± 0.35 | 60 | 21.9 ± 3.39 | 86 | 
CC(=O)c1cc2c3cc(C(C)=O)c(O)cc3n(CCNC(C)C)c2cc1O [CBL0187, 1-[6-acetyl-2,7-dihydroxy-9-[2-(isopropylamino)ethyl]carbazol-3-yl]ethanone] | 15.9 |  | 41 | 98 | 592 | 30 | 6 | not trypanocidal | 36.3 (≈ 13.4 µg/mL) | 8.99 × 10^7 ± 2.43 × 10^7 trypanosomes/mL | failed to control parasitemia | 14 ± 1.91 | 47 | 21.7 ± 3.39 | 64 | 24
